Results published in US20260060982A1, “USE OF BTK INHIBITOR AND SINGLE-DOSE DRUG” (HUBEI BIO-PHARMACEUTICAL INDUSTRIAL TECHNOLOGICAL INSTITUTE …, priority 2023, published 2026).

How the values were obtained:
[1] = system: IgM-induced calcium signaling in RAMOS cells; assay: Antagonism of IgM-induced calcium signaling in RAMOS cells (FLIPR); format: cell-based; details: Homo sapiens, Fluo-4D dye
Description: The specific test steps were as follows:
A. Ramos cells (ECACC) were seeded in a 384 experimental plate using cell culture medium (RPMI 1640 medium supplemented with 10% fetal bovine serum) at a density of 5×10^6 cells/mL, 20 μL per well.
C. The cell plate and the compound plate were placed into FLIPR. 10 μL was transferred from the compound plate by the FLIPR instrument and added to the cell plate. The cell plate was removed and incubated in a 37° C. incubator for 1 h.
D. One hour later, 40 μL of Fluo-4D dye (Life Technologies, formulated as 0.5× with 40 mL of HBSS and HEPES buffer) was added to the cell plate and incubated at 37° C. for 50 min.
E. 10 μL of IgM at 8×EC80 concentration was added, and the plate was read using FLIPR.
F. The IC50 results of the compounds were analyzed using EXCEL and Prism statistical software.

[2] = system: PG-PS-induced arthritis in Lewis rats; assay: PG-PS-induced arthritis model in rats; format: in vivo; details: for joint tissue lesions (pathology): day 30
Text: Intraperitoneal injection of PG-PS suspension can effectively induce chronic, erosive, and relapsing symptoms similar to human rheumatoid arthritis in rats, and is often used to evaluate the in vivo effectiveness of medicaments in the early discovery of arthritis medicaments. The specific steps were as follows:
On day 0, Lewis rats were randomly divided into 6 groups, with 5 rats in the first group and 10 rats in each group from the second group to the sixth group. All rats in the second to sixth groups were intraperitoneally injected with PG-PS (Lee Laboratories, PG-PS 10S, 5.1 mg/ml Rhamnose) to establish the model. The PG-PS injection dose v=15 μg/g×bw (rat weight, in g)/5.1 μg/μL.
On day 1, the model rats (the second to sixth groups) were randomly redivided into 5 groups, with 10 rats in each group. The animals in each group were given the corresponding medicament or vehicle by gavage once a day until the 29th day. […] Clinical observations and clinical scoring were performed daily during the administration period. The ankle diameter of each animal after modeling was subtracted from its ankle diameter before modeling to obtain the ankle diameter difference (delta ankle diameter). The area under the curve (AUC) was calculated by analyzing the ankle diameter difference of each animal in each group. The inhibition rate of each administration group relative to the blank vehicle control was calculated by the average AUC between groups.
Pathology: On day 30, the rats were euthanized. The two hind limbs of rats were stained with toluidine blue to evaluate the degree of joint damage in terms of inflammatory cell lesions, pannus formation, cartilage damage, bone resorption, and periosteal new bone formation, and the severity was scored on a scale from 0 to 7.

[3] = Phase I single-dose clinical trial, pharmacokinetics; format: in vivo; details: human, plasma, oral, single administration, 10 mg to 800 mg
Text: (§1) In this example, 96 healthy Chinese aged 18 to 45 were recruited as subjects. The trial included 8 dose groups, each with 12 subjects, who were randomly divided into groups, 10 of whom received compound (I) capsules (i.e., the trial group) and 2 received placebo capsules (containing no compound (I), i.e., the control group or placebo group). […] The dosages involved in this example were all the amount of compound (I). Based on safety and exploration factors, the human MRSD (maximum recommended starting dose) of compound (I) capsule used in the example was set at 10 mg, and the human maximum recommended dose was set at 800 mg. A total of 8 dose groups were set up between the initial dose and the maximum dose (see Table 2 for the dose escalation scheme of the clinical trial): 10 mg, 25 mg, 50 mg, 100 mg, 200 mg, 400 mg, 600 mg, and 800 mg, and single administration safety and tolerability trials were conducted group by group.
(§2) The subjects fasted for 10 h before administration and took a single oral administration of compound (I) capsule or placebo capsule at the prescribed dose on the morning of the trial day. Water was prohibited within 2 h after the administration and food was prohibited within 4 h after the administration. Blood sample collection: 3.0 ml of venous blood was collected before administration (within 45 min) and at 10 min, 20 min, 0.5 h, 1 h, 1.5 h, 1.75 h, 2 h, 2.5 h, 3 h, 3.5 h, 4 h, 6 h, 8 h, 12 h, 16 h, 24 h, 36 h, 48 h, and 72 h after administration. Urine sample collection: Urine samples were collected before administration (within 2 h) and at 0-2 h, 2-4 h, 4-8 h, 8-12 h, 12-16 h, 16-24 h, 24-48 h, and 48-72 h after administration. Feces collection: Feces were collected before administration (within 3 days) and at 0-24 h, 24-48 h, and 48-72 h after administration.
The analysis was performed using the Per-protocol set. The time-dependent plasma concentration data of compound (I) capsules were processed using WinNonlin version 6.4. The main pharmacokinetic parameters of each subject were calculated using a non-compartmental model, and the linear relationship between dose and Cmax and AUC0-t was analyzed using a power function model.

[4] = Phase I single-dose clinical trial, safety and tolerability; format: in vivo, human; details: compound (I) group, all doses (n = 80)
Text: as §1, §2
Safety data set: including all subjects who received at least one administration and had post-administration safety data. […]

For `C=CC(=O)N1CCC[C@@H](n2nc(-c3ccc(Oc4ccccn4)cc3)c3c(N)n[nH]c(=O)c32)C1` [compound (I), (R)-1-(1-acryloylpiperidin-3-yl)-4-amino-3-(4-(pyridin-2-yloxy)phenyl)-1H-pyrazolo[3,4-d]pyridazin-7(6H)-one], the IC50 [1] was 55 ± 3.34 nM, the “inhibition rate (AUC of ankle diameter difference vs blank vehicle control)” value ([2]; 1 mg/kg once a day by gavage until the 29th day) was 47.7% and the “joint tissue lesions (pathology)” value ([2]; 1 mg/kg) was “trend of alleviating tissue damage”. The “inhibition rate (AUC of ankle diameter difference vs blank vehicle control)” value ([2]; 3 mg/kg once a day by gavage until the 29th day) was 64.7%, the “joint tissue lesions (pathology)” value ([2]; 3 mg/kg) was “significant improvement effect” and the “inhibition rate (AUC of ankle diameter difference vs blank vehicle control)” value ([2]; 10 mg/kg once a day by gavage until the 29th day) was 77.3%. For the same compound, the “joint tissue lesions (pathology)” value ([2]; 10 mg/kg) was “significant improvement effect”, the Cmax ([3]; read-out: Cmax, range over dose groups) was 46.1 to 5060 ng/mL and the MRT ([3]; read-out: MRT, range over dose groups) was 1.53 to 4.25 h. The half-life ([3]; read-out: T1/2, range over dose groups) was 0.847 to 8.67 h, the Tmax ([3]; read-out: Tmax, range over dose groups) was 1.03 to 2 h and the “subjects with TEAEs” value [4] was 25. The “subjects with TEAEs, share” value [4] was 31.3% and the “treatment-emergent adverse events (TEAE), number of events” value [4] was 35.
